In patent publication US20210238169A1, “PROCESS FOR PREPARING A COMPOUND OF FORMULA (XIII)” (PULMOCIDE LIMITED, priority 2014, published 2021):
≈ marks a conversion by molar mass, not a printed value. Where two headings read alike, the source gives them in different places.

Tests used:
[1] = system: Aspergillus fumigatus (NCPF2010); assay: Resazurin-microtitre assay of planktonic fungal growth; type: cell-based
Method: This assay was conducted using a modified, published method (Monteiro et al., 2012). Spores of Aspergillus fumigatus (NCPF2010, Public Health England, Wiltshire) were cultured in Sabouraud dextrose agar for 3 days. A stock spore suspension was prepared from a Sabouraud dextrose agar culture by washing with PBS-tween (10 mL; PBS containing 0.05% Tween-20, 100 U/mL Penicillin and 100 U/mL Streptomycin). The spore count was assessed using a Neubauer haemocytometer and, using PBS, adjusted to 10^6 spores/mL. A working suspension of spores (10^4 spores/mL) was prepared in filter sterilised MOPS RPMI-1640 (50 mL; RPMI-1640 containing 2 mM L-glutamine, 2% glucose and 0.165 M MOPS, buffered to pH 7 with NaOH). Resazurin sodium salt (100 μL of 1% solution; Sigma-Aldrich, Dorset, UK) was added to the spore suspension and mixed well. The spore suspension-resazurin mixture (100 μL/well) was added to 384-well plates (Catalogue number 353962, BD Falcon, Oxford, UK). Simultaneously, test compounds (0.5 μL DMSO solution) were added to 100 μL of the spore-resazurin mixture in quadruplicate to provide a final DMSO solution of 0.5% using an Integra VIAFLO 96 (Intergra, Zizers, Switzerland). For non-spore control wells, MOPS-RPMI-resazurin solution (100 μL) was added instead of the spore-resazurin mixture. The plate was covered with a Breathe Easier membrane (Catalogue No Z763624, Sigma-Aldrich, Dorset, UK), and incubated (35° C., 5% CO2) until fluorescence in the inoculated wells was double that of the control wells (around 24 hr). The fluorescence of each well (545 nm (excitation)/590 nm (emission), gain 800, focal height 5.5 mm) was determined using a multi-scanner (Clariostar: BMG, Buckinghamshire, UK). The percentage inhibition for each well was calculated and the MIC50, MIC75 and MIC90 values were calculated from the concentration-response curve generated for each test compound.

BEAS2B cells = assay: Cell viability: resazurin assay; type: cell-based, human; conditions: n = 1-5
Method: (§1) BEAS2B cells were seeded in 384-well plates (100 μL; 3000/well/; BD Falcon, Catalogue No 353962) in RPMI-LHC8 (RPMI-1640 and LHC8 media combined in equal proportions) one day before experimentation. For cell-free control wells, RPMI-LHC8 (100 μL) was added. Test compounds (0.5 μL of a DMSO solution) were added to give a final DMSO concentration of 0.5% using an Integra VIAFLO 96 (Integra, Zizers, Switzerland). BEAS2B cells were incubated with each test compound for 1 day (37° C./5% CO2 in RPMI-LHC8). After addition of resazurin stock solution (5 μL, 0.04%) the plates were incubated for a further 4 hr (37° C./5% CO2). The fluorescence of each well at 545 nm (excitation) and 590 nm (emission) was determined using a multi-scanner (Clariostar: BMG Labtech). The percentage loss of cell viability was calculated for each well relative to vehicle (0.5% DMSO) treatment. Where appropriate, a CC50 value was calculated from the concentration-response curve generated from the concentration-response curve for each test compound.

[2] = system: Aspergillus fumigatus isolates; assay: Broth microdilution assay of planktonic fungal growth (modified EUCAST); type: cell-based; conditions: read-out: MIC75
Method: This assay was conducted using a modified method published by EUCAST (Rodriguez-Tudela et al., 2008). Spores of Aspergillus fumigatus (NCPF2010, NCPF7010 (Methionine 220 mutation), NCPF7099 (Glycine G54 mutation) from Public Health England, Wiltshire; TR34/L98H mutants from St Louis Hospital, Paris, France) were cultured in Sabouraud dextrose agar for 3 days. A stock spore suspension was prepared from a Sabouraud dextrose agar culture by washing with PBS-tween (10 mL; PBS containing 0.05% Tween-20, 100 U/mL Penicillin and 100 U/mL Streptomycin). The spore count was assessed using a Neubauer haemocytometer and then adjusted to 10^6 spores/mL with PBS. A working suspension of spores (2×10^5 spores/mL) was prepared in filter sterilised, BSA MOPS RPMI-1640 (50 mL; RPMI-1640 containing 2 mM L-glutamine, 0.5% BSA, 2% glucose, 0.165 M MOPS, buffered to pH 7 with NaOH). For the assay, BSA MOPS RPMI-1640 (50 μL/well) was added throughout the 384-well plate (Catalogue number 353962, BD Falcon, Oxford, UK) first. Test compounds (0.5 μL DMSO solution) were then added in quadruplicate using an Integra VIAFLO 96 (Integra, Zizers, Switzerland), and mixed well using a plate mixer. Subsequently 50 μL of the working spore suspension prepared above was added to all wells except non-spore control wells. For non-spore control wells, BSA MOPS-RPMI solution (50 μL/well) was added instead. The plate was covered with a plastic lid, and incubated (35° C. with ambient air) for 48 hr. The OD of each well at 530 nm was determined using a multi-scanner (Clariostar: BMG, Buckinghamshire, UK). The percentage inhibition for each well was calculated and the MIC50, MIC75 and MIC90 values were calculated from the concentration-response curve generated for each test compound.

[3] = system: Aspergillus fumigatus isolates; assay: as above; type: cell-based; conditions: isolate NCPF7100, broth microdilution, read-out: MIC75
Aspergillus fumigatus = Aspergillus fumigatus infection of BEAS2B bronchial epithelial cells (GM in supernatant); type: cell-based
Method: BEAS2B cells were seeded in 96-well plates (100 μL; 30,000 cells/well; Catalogue No 3596, Sigma Aldrich, Dorset, UK) in 10% FBS RPMI-1640 and were then incubated (37° C., 5% CO2) for one day before experimentation. Test compounds (0.5 μL DMSO solution) or vehicle (DMSO) were added to each well to give a final DMSO concentration of 0.5%. BEAS2B cells were incubated with test compounds for 1 hr (35° C., 5% CO2) before infection with Aspergillus fumigatus (20 μL; Public Health England) conidia suspension (0.5×10^5/ml in 10% FBS RPMI-1640). The plate was incubated for 24 hr (35° C., 5% CO2). Supernatant (50 μL) was collected and transferred to a PCR plate (Catalogue No L1402-9700, Starlab, Milton Keynes, UK), which was frozen (−20° C.) until use. After thawing, supernatant (5 μL) was diluted 1:20 by adding R7-PBS solution (95 μL; 1:4 R7 to PBS; Bio-Rad Laboratories, Redmond, Wash., USA). GM levels in these samples (50 μL) were measured using Platelia GM-EIA kits (Bio-Rad Laboratories, Redmond, Wash., USA). The percentage inhibition for each well was calculated and the IC50 value was calculated from the concentration-response curve generated for each test compound.

[4] = Cell viability: resazurin assay; type: cell-based, human; conditions: human, BEAS2B cells; n = 1-5
Method: as §1

Compound	Planktonic fungal growth MIC50 [1]	Planktonic fungal growth MIC75 [1]	CC50 (BEAS2B cells)	MIC ([2]; isolate L98H, broth microdilution)	MIC ([2]; isolate NCPF2010, broth microdilution)	MIC ([2]; isolate NCPF7099, broth microdilution)	MIC [3]	MIC50 (Aspergillus fumigatus)	CC50 at 1 day [4]	MIC ([2]; Aspergillus fumigatus)	MIC ([2]; Aspergillus fumigatus, isolate NCPF2010, broth microdilution)	MIC ([2]; Aspergillus fumigatus, isolate NCPF7099, broth microdilution)	MIC ([3]; Aspergillus fumigatus)
C[C@@H]1[C@H](O)[C@@H](C)/C=C/C=C/C=C/C=C/C=C/C=C/C=C/[C@H](O[C@@H]2O[C@H](C)[C@@H](O)[C@H](N)[C@@H]2O)C[C@@H]2O[C@](O)(C[C@@H](O)C[C@@H](O)[C@H](O)CC[C@@H](O)C[C@@H](O)CC(=O)O[C@H]1C)C[C@H](O)[C@H]2C(=O)O [Amphotericin B]	0.0285 µM	0.0644 µM	0.977 µM	0.209 µM (≈ 0.193 µg/mL)	0.382 µM (≈ 0.353 µg/mL)	0.365 µM (≈ 0.337 µg/mL)	>1.08 µM	–	–	–	–	–	–
[2H]c1c([2H])c(NC(=O)c2ccc(N3CCN(c4ccc(OC[C@@H]5CO[C@@](Cn6cncn6)(c6ccc(F)cc6F)C5)c(C)c4)CC3)cc2)c([2H])c([2H])c1F [Compound (I)•4[^2H], 4-(4-(4-(((3R,5R)-5-((1H-1,2,4-triazol-1-yl)methyl)-5-(2,4-difluorophenyl)tetrahydrofuran-3-yl)methoxy)-3-methylphenyl)piperazin-1-yl)-N-(4-fluorophenyl-2,3,5,6-d4)benzamide]	–	–	–	–	–	–	–	0.00315 µM (≈ 0.00216 µg/mL)	> 14.6 µM	0.07 µM (≈ 0.0481 µg/mL)	0.0147 µM (≈ 0.0101 µg/mL)	0.0137 µM (≈ 0.00941 µg/mL)	0.0286 µM (≈ 0.0196 µg/mL)
